Test results: patent US20250179057A1, “MEK IMMUNE ONCOLOGY INHIBITORS AND THERAPEUTIC USES THEREOF” (Immuneering Corporation, priority 2022, published 2025)

Columns and labels:
[1] = PAMPA (pH 7.4); format: in vitro ADME; conditions: PAMPA; pH = 7.4 (Table 14)
[2] = test system: phospho-ERK in A549 (KRAS G12S) cells; assay: Cell-based pERK (pERK:tERK) in A549 cells; parameters: A549-pERK 10 uM, 2 h: unit not given here; conditions: for activity at 0.01 µM: Homo sapiens, A549, 2 h, read-out: A549-pERK (10 nM, 2 h); for A549-pERK (10 nM, 2 h): phospho- to total protein ratio normalized to DMSO control (Table 9)
Protocol: Media components, reagents and buffers for Western Blot: All cell culture media components were obtained from ThermoFisher Scientific. […] Laemmli sample loading 4× buffer (ThermoFisher Scientific, Cat No. NP0007). MOPS/SDS electrophoresis running buffer (GenScript, Cat No. M00138).
Subculture conditions: Adherent cells were grown to approximately 90% confluency, culture medium was aspirated and the cell layer was rinsed with PBS. […] Eight mL media was added, cells were spun down at 1000×g for 5 minutes. Cell pellet was re-suspended in 10 mL media and an appropriate volume was inoculated into a new culture flask.
Compound (drug) treatment: Cells were plated in a 6-well plate at a density of 250,000-300,000 cells/well in 3 mL media and incubated 37° C. in a humidified, 5% CO2 incubator. […] These solutions were added to the cells (3 uL/well), mixed by swirling the plate, and incubated at 37° C. in a humidified, 5% CO2 incubator for 2 hours.
Cell lysis and protein estimation: Cells were washed with PBS, and scraped in 50 μL of lysis buffer containing protease and phosphatase inhibitors. Cell lysates were stored at −20° C. Cell lysates were thawed and spun at 12,000 rpm for one minute, 3 ul of the supernatant was added to 500 μL of Coomassie blue reagent following by 500 μL of water. […] Protein standards were used (0-20 mg/mL) to calculate protein concentrations of test samples.
All samples were heated at 95° C. for 5 minutes, cooled to room temperature and spun down. […] After the run, gel was removed and protein transfer was done using iBlot for 7 minutes, as per manufacturer's recommendations. After the transfer, nitrocellulose membrane was incubated on a shaker in 5 mL of blocking buffer at room temperature for 1 hr. The blot was then incubated overnight on a shaker in 5 ml of blocking buffer containing 0.2% Tween-20 and primary antibody, at room temperature. Anti-phospho-STAT3 antibody was used at a dilution of 1:500, the other 3 primary antibodies were used at a dilution of 1:1000.
Next day, the blot was washed 3 times for 10 min each with 10 mL of TBST followed by incubation on a shaker in 5 ml of blocking buffer containing 0.2% Tween-20 and 0.5 ul of the IRDye labeled secondary antibodies, diluted 1:10000, at room temperature for 1 hr. The blot was then washed 3 times for 10 min each with 10 mL of TBST and dried between sheets of paper towels. Imaging was done using LICOR's Odyssey imaging system, quantitation was done using their software, Image Studio version 3.1.
(§1) Materials and Methods: A549 or A375 cells were seeded in 6-well plates at an appropriate seeding density on day 0. On day 2 or 3, after checking the health and confluency of cells, the media was aspirated and replaced with 1 mL media containing a predetermined concentration of compound and incubated for 2 hours. After 2 hours, the media was aspirated, and the cells washed 2 times with cold PBS. Cells were lysed on ice, with 50 uL 1×CST lysis buffer +1 mM PMSF for 5 minutes. After 5 minutes, cells were removed using a scraper and transferred to cold 1.5 mL tubes, and centrifuged for 10 min, 4° C., 14,000×g. Supernatant was gently removed and snap frozen in liquid nitrogen. Protein concentration of the lysate was determined using Bradford Reagent (analyzed using SpectraMax M2E) and diluted to 1 mg/mL or pERK or 1.5 mg/mL for pMEK analysis. […] All dilutions were in Milk-free antibody diluent.
They were grown in T75 flasks in DMEM containing 10% FBS and Pen-Strep. at 37° C. in a humidified, 5% CO2 incubator. The adherent cells were grown to about 90% confluency, culture medium was aspirated, and the cell layer was rinsed with PBS. […] Eight mL media was added, cells were spun down at 1000 g for 5 minutes. Cell pellet was re-suspended in 10 mL media and an appropriate volume was inoculated into a new culture flask. Cells were plated in a 6-well plate at a density of 250,000-300,000 cells/well in 3 mL media and incubated 37° C. in a humidified, 5% CO2 incubator.

[3] = test system: phospho-MEK in A549 cells; assay: Cell-based pMEK (pMEK:tMEK, CRAF bypass) in A549 cells; conditions: 2 h, pMEK to total MEK normalized to DMSO control
Protocol: as §1
(§2) A549 or […] cells were treated in duplicate for two hours with compounds at varying concentrations. After two hours, the cells were lysed, snap frozen, and stored at −80° C. After storage, the lysate was quantified with the Bradford assay. Before the lysates were prepared to run on the Jess, the lysates were diluted to 1 mg/mL for pERK analysis and 1.5 mg/mL pMEK analysis using quantitative Western blotting. ERK and MEK phosphorylation levels were estimated by taking the ratio of phospho-protein to total protein and normalizing to the DMSO control.
as §2

SMILES | A549-CRAF BP 100 nM, 2 h [3] | A549-pERK (10 nM, 2 h) ([2]; 2 h) | also measured
CCS(=O)(=O)Nc1cccc(Cc2c(CN(C)C)c3ccc(OC(=O)N(C)C)cc3oc2=O)c1Cl [Compound 249, 3-(2-chloro-3-(ethylsulfonamido)benzyl)-4-((dimethylamino)methyl)-2-oxo-2H-chromen-7-yl dimethylcarbamate] |  |  | Papp at 4 h, 50 μM [1]: 64 ×10⁻⁶ cm/s
CNS(=O)(=O)Nc1cccc(Cc2c(CN(C)C)c3c(C)cc(OC(=O)N(C)C)cc3oc2=O)c1F [Compound 253, 4-((dimethylamino)methyl)-3-(2-fluoro-3-((N-methylsulfamoyl)amino)benzyl)-5-methyl-2-oxo-2H-chromen-7-yl dimethylcarbamate] |  |  | Papp at 4 h, 50 μM [1]: 48 ×10⁻⁶ cm/s
CCS(=O)(=O)Nc1cccc(Cc2c(CN(C)CC(F)F)c3ccc(OC(=O)N(C)C)cc3oc2=O)c1F [Compound 243] |  |  | Papp at 4 h, 50 μM [1]: 48 ×10⁻⁶ cm/s; activity at 0.01 µM [2]: 86.7%
CN(C)Cc1c(Cc2cccc(NS(=O)(=O)CC(F)(F)F)c2F)c(=O)oc2cc(OC(=O)N(C)C)c(F)cc12 [Compound 236] |  |  | Papp at 4 h, 50 μM [1]: 52 ×10⁻⁶ cm/s; activity at 0.01 µM [2]: 94.1%
CCS(=O)(=O)Nc1cccc(Cc2c(CN(C)CCF)c3ccc(OC(=O)N(C)C)cc3oc2=O)c1F [Compound 241] |  |  | Papp at 4 h, 50 μM [1]: 69 ×10⁻⁶ cm/s; activity at 0.01 µM [2]: 96.6%
CCN(C)Cc1c(Cc2cccc(NS(=O)(=O)CC(F)(F)F)c2F)c(=O)oc2cc(OC(=O)N(C)C)c(F)cc12 [Compound 237] |  |  | Papp at 4 h, 50 μM [1]: 50 ×10⁻⁶ cm/s; activity at 0.01 µM [2]: 114%
CCS(=O)(=O)Nc1cccc(Cc2c(CN3CCNCC3)c3ccc(OC(=O)N(C)C)cc3oc2=O)c1Cl [Compound 258, 3-(2-chloro-3-(ethylsulfonamido)benzyl)-2-oxo-4-(piperazin-1-ylmethyl)-2H-chromen-7-yl dimethylcarbamate] |  |  | Papp at 4 h, 50 μM [1]: 1 ×10⁻⁶ cm/s
C#CCNCCc1c(Cc2cccc(NS(=O)(=O)NC)c2F)c(=O)oc2cc(OC(=O)N(C)C)ccc12 [Compound 183] | 65.9 (mean, n = 2) | 32.4 | A549-pERK 10 uM, 2 h ([2]; 10 uM, 2 h, phospho- to total protein ratio normalized to DMSO control): 0.82
C#CCNCc1c(Cc2cccc(NS(=O)(=O)NC)c2F)c(=O)oc2cc(OC(=O)N(C)C)ccc12 [Compound 14] | 59.1 | 64 | 
CNS(=O)(=O)Nc1cccc(Cc2c(CN(C)CC#N)c3ccc(OC(=O)N(C)C)cc3oc2=O)c1F [Compound 87] | 95.8 | 63.8 | 
Cc1c(Cc2ccnc(NS(=O)(=O)C3CCC3)c2F)c(=O)oc2cc(OC(=O)N(C)C)ccc12 [Compound 125] | 41.7 | 54.4 | 
CCS(=O)(=O)Nc1cccc(Cc2c(CN(C)C)c3cc(Cl)c(OC(=O)N(C)C)cc3oc2=O)c1F [Compound 132] | 57.8 | 62.6 | 
CN(C)C(=O)Oc1cc2oc(=O)c(Cc3cccc(NS(=O)(=O)CC(F)(F)F)c3F)c(CN3CCNCC3)c2cc1Cl [Compound 247, 6-chloro-3-(2-fluoro-3-((2,2,2-trifluoroethyl)sulfonamido)benzyl)-2-oxo-4-(piperazin-1-ylmethyl)-2H-chromen-7-yl dimethylcarbamate] |  |  | Papp at 4 h, 50 μM [1]: 7 ×10⁻⁶ cm/s; activity at 0.01 µM [2]: 105%
CNS(=O)(=O)Nc1cccc(Cc2c(CN3CC4(CCC4)C3)c3ccc(OC(=O)N(C)C)cc3oc2=O)c1F [Compound 153] | 54.1 | 50.2 | 
CCS(=O)(=O)Nc1nccc(Cc2c(C)c3ccc(OC(=O)N(C)C)cc3oc2=O)c1F [Compound 119] | 66.1 | 64.8 | 
CCS(=O)(=O)Nc1cccc(Cc2c(C)c3ccc(OC(=O)N(C)C)cc3oc2=O)c1F [Compound 107] | 39.9 | 18.0 | 

SMILES | A549-CRAF BP 100 nM, 2 h [3] | A549-pERK (10 nM, 2 h) ([2]; 2 h) | also measured
CNS(=O)(=O)Nc1cccc(Cc2c(CN(C)Cc3ccccc3)c3ccc(OC(=O)N(C)C)cc3oc2=O)c1F [Compound 80] | 56.1 | 56.4 | 
Cc1c(Cc2ccnc(NS(=O)(=O)C(C)C)c2F)c(=O)oc2cc(OC(=O)N(C)C)ccc12 [Compound 114] | 59.9 (mean, n = 3) | 36.6 | 
CNS(=O)(=O)Nc1cccc(Cc2c(CN3CCNCC3)c3cc(Cl)c(OC(=O)N(C)C)cc3oc2=O)c1F [Compound 21] | 47.9 (mean, n = 2) | 20.4 | 
CCCN(C)Cc1c(Cc2cccc(NS(=O)(=O)NC)c2F)c(=O)oc2cc(OC(=O)N(C)C)ccc12 [Compound 81] | 78.3 | 57.6 | 
CNS(=O)(=O)Nc1cccc(Cc2c(CNc3cncs3)c3ccc(OC(=O)N(C)C)cc3oc2=O)c1F [Compound 91] | 84.2 | 74.6 | 
CNS(=O)(=O)Nc1cccc(Cc2c(C)c3cc(Cl)c(OC(=O)N(C)C)cc3oc2=O)c1F [Compound 109] | 41.9 (mean, n = 2) | 4.51 | 
CNS(=O)(=O)Nc1nccc(Cc2c(C)c3cc(Cl)c(OC(=O)N(C)C)cc3oc2=O)c1F [Compound 111] | 48.6 (mean, n = 2) | 4.63 | 
CCS(=O)(=O)Nc1nccc(Cc2c(CN(C)C)c3ccc(OC(=O)N(C)C)cc3oc2=O)c1F [Compound 148] | 56.5 | 49.6 | 
CNS(=O)(=O)Nc1cccc(Cc2c(CN(C)C3CC3)c3ccc(OC(=O)N(C)C)cc3oc2=O)c1F [Compound 82] | 72.3 | 64.9 | 
CNS(=O)(=O)Nc1nccc(Cc2c(C)c3cc(C)c(OC(=O)N(C)C)cc3oc2=O)c1F [Compound 110] | 56.6 (mean, n = 2) | 5.92 | 
CNS(=O)(=O)Nc1cccc(Cc2c(CN(C)CC3CC3)c3ccc(OC(=O)N(C)C)cc3oc2=O)c1F [Compound 84] | 87.3 | 83.2 | 
CNS(=O)(=O)Nc1cccc(Cc2c(CNCC#N)c3ccc(OC(=O)N(C)C)cc3oc2=O)c1F [Compound 33] | 51.4 | 55.4 | 
CNS(=O)(=O)Nc1cccc(Cc2c(CN(C)C)c3c(OC)cc(OC(=O)N(C)C)cc3oc2=O)c1F [Compound 252, 4-((dimethylamino)methyl)-3-(2-fluoro-3-((N-methylsulfamoyl)amino)benzyl)-5-methoxy-2-oxo-2H-chromen-7-yl dimethylcarbamate] |  |  | Papp at 4 h, 50 μM [1]: 15 ×10⁻⁶ cm/s
CNS(=O)(=O)Nc1nccc(Cc2c(CN(C)C)c3cc(F)c(OC(=O)N(C)C)cc3oc2=O)c1F [Compound 140] | 70.3 | 65.0 | 
CCS(=O)(=O)Nc1cccc(Cc2c(CN3CCNCC3)c3cc(Cl)c(OC(=O)N(C)C)cc3oc2=O)c1F [Compound 147] | 46.4 | 21.7 | pERK:tERK (10 nM 2 h A549) ([2]; Phospho-ERK Screen in A549 (KRAS G12S), head 10 nM 2 h, title 10 μM for 2 hours): 28 (n = 2)
